Where “and” joins values, the source holds several entries; their conditions need not be identical. Equal entries are not always repeated. Each block holds one compound with its values, some of them ahead of it.
System: 885512-296-R-J2-PDC complex spheroid viability
Assay: Anticancer human tumor 885512-296-R-J2-PDC patient-derived breast carcinoma cell line growth inhibition
Conditions: for viability, T/C: stronger effect = lower value
Source text: Multicellular complex tumor spheroid response to LSD1 Inhibitor Iadademstat in combination with a variety of drugs and investigational agents in selected tumor cell lines
The current study was undertaken to assess response to LSD1 inhibitors in combination with standard-of-care drugs and investigational agents in solid tumor complex spheroid models as well as in the K-562 leukemia. Complex spheroids include a stromal component modeled by human endothelial cells (HUVEC) and fibroblasts modeled by human mesenchymal stem cells (MSCs). The concentration ranges selected for each drug and investigational agent were based upon clinically achievable concentrations if the clinical Cmax of the agent was known.
Compounds. The drugs and investigational agents used in this study are listed on Table 1. All of the agents used, including staurosporine (NSC755774) and gemcitabine (NSC613327), were obtained from the Developmental Therapeutics Program, NCI. FDA-approved anticancer drugs are available from the NCI at http://dtp.nci.nih.gov/branches/dscb/oncology_drugset_explanation.html. Drugs and investigational agents were >95% pure by proton nuclear magnetic resonance (NMR) and liquid chromatography/mass spectrometry (LC/MS). Stock solutions were prepared at 400x in DMSO, stored at -70 degrees C, and diluted in fresh medium prior to their use. The final concentration of DMSO in cell culture wells never exceeded 0.25% (v/v). The FDA-approved anticancer drug set is available from the Developmental Therapeutics Program at https://dtp.cancer.gov/organization/dscb/obtaining/available_plates.htm. All drugs and investigational agents were tested over a range starting from a high concentration at or near the clinical Cmax and decreasing in half-log increments. If the clinical Cmax for an agent had not been determined, the highest concentration tested was 10 microM.
Cell Lines. The patient-derived cancer cell (PDC) lines: 292921-168-R-J2-PDC, K24384-001-R-PDC, and 521955-158-R2-J5-PDC pancreatic carcinomas, 556581-035-R-J1 ovarian carcinoma, 324938-238-R-J1-PDC, 855422-203-R-J1-PDC and 883617-216-R-J1-PDC urothelial bladder carcinomas, 743489-274-T-PDC renal cell carcinoma, 138582-R-J1 Merkel cell tumor, K60290-347-R-J1 and K57222-313-R-J1-PDC glioblastomas, 653999-131-R-J2-PDC, LG0703-F948-PDC, and 349418-098-R-PDC non-small cell lung carcinomas, 885512-296-R-J2-PDC, 171881-019-R-J1-PDC breast carcinomas and 186277-243-T-J2-PDC and 233499-124-R-J2-PDC colon carcinomas were obtained from the NCI Patient-Derived Models Repository (PDMR, https://pdmr.cancer.gov). The established cell lines NCI/ADR-RES (RRID:CVCL_14520 and OVCAR-5 (RRID:CVCL_1628) ovarian carcinomas, 786-O (RRID:CVCL_1051) and A498 (RRID:CVCL_A498) renal cell carcinoma, NCI-H211 (ATCC, cat. CRL-5824; RRID:CVCL_1529), NCI-H196 (ATCC, cat. CRL-5823, RRID:CVCL_1509), SW 1271 (ATCC, cat. CRL-2177, RRID:CVCL_1716) and NCI-H1876 (ATCC, cat. CRL-5902, RRID:CVCL_1503) small cell lung carcinomas, MDA-MB-231 (RRID:CVCL_0062) and MDA-MB-468 (RRID:CVCL_0419)breast carcinomas (10-12). Pooled donor human umbilical vein endothelial cells (HUVEC, Lonza, cat. CC-2519) and human mesenchymal stem cells (hMSC, Lonza, cat. PT-2501) were purchased from Lonza (Walkersville, MD).
Cell Culture. All cells were maintained in an incubator at 37 degrees C and 5% CO2 with 95% humidity. The PDC lines were cultured according to standard operating procedures established by the NCI PDMR (https://pdmr.cancer.gov). Briefly all PDCs were thawed and cultured in Matrigel-coated flasks prepared with a working solution of 1X Ham's F-12 nutrient mix, without supplementation (Invitrogen, Waltham, MA, cat. 11765054), 100 U/mL penicillin-streptomycin (Invitrogen, cat. 15140122), and 2.5% Matrigel (Corning Inc., Corning, NY, cat. 354248) for the first three passages. […]
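Also: spheroids exposed to agents for 7 days before viability read.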

IC50 (curve of compound): 62 nM and 25.2 nM
SMILES: Nc1ccccc1NC(=O)c1ccc(CNC(=O)OCc2cccnc2)cc1
viability, T/C (compound 0.00949 µM): 92.7% and 64.7%
viability, T/C (compound 0.03 µM): 63.2% and 46.1%
viability, T/C (compound 0.0949 µM): 44.3% and 33.1%
viability, T/C (compound 0.3 µM): 22.8% and 16.8%
viability, T/C (compound 0.949 µM): 12.9% and 6.76%
viability, T/C (compound 3 µM): 10.3% and 0.3%

IC50 (curve of compound): 1700 nM and 188 nM
SMILES: CCN(c1cc(-c2ccc(CN3CCOCC3)cc2)cc(C(=O)NCc2c(C)cc(C)[nH]c2=O)c1C)C1CCOCC1
viability, T/C (compound 0.00949 µM): 92.3% and 81.8%
viability, T/C (compound 0.03 µM): 80.2% and 89.8%
viability, T/C (compound 0.0949 µM): 74.8% and 68%
viability, T/C (compound 0.3 µM): 60.2% and 35.7%
viability, T/C (compound 0.949 µM): 76.2% and 18.2%
viability, T/C (compound 3 µM): 25.1% and 7.11%

SMILES: COc1cc(C2c3cc4c(cc3C(OC3OC5COC(C)OC5C(O)C3O)C3COC(=O)C23)OCO4)cc(OC)c1O (centres undefined) + NC1CCC(NC2CC2c2ccccc2)CC1
IC50 (curve of first compound, second compound 0.1 µM): 67.8 nM
IC50 (curve of first compound, second compound 0.316 µM): 60.8 nM
IC50 (curve of first compound, second compound 1 µM): 66.8 nM
IC50 (curve of first compound, second compound 3.16 µM): 77.6 nM
IC50 (curve of first compound, second compound 10 µM): 52.8 nM
viability, T/C (second compound 0.1 µM, first compound 0.00949 µM): 118%
viability, T/C (second compound 0.1 µM, first compound 0.03 µM): 95.8%
viability, T/C (second compound 0.1 µM, first compound 0.0949 µM): 31.2%
viability, T/C (second compound 0.1 µM, first compound 0.3 µM): 11.3%
viability, T/C (second compound 0.1 µM, first compound 0.949 µM): 10.2%
viability, T/C (second compound 0.1 µM, first compound 3 µM): 11.3%
viability, T/C (second compound 0.316 µM, first compound 0.00949 µM): 108%
viability, T/C (second compound 0.316 µM, first compound 0.03 µM): 90.7%
viability, T/C (second compound 0.316 µM, first compound 0.0949 µM): 24.3%
viability, T/C (second compound 0.316 µM, first compound 0.3 µM): 11.8%
viability, T/C (second compound 0.316 µM, first compound 0.949 µM): 9.27%
viability, T/C (second compound 0.316 µM, first compound 3 µM): 8.79%
viability, T/C (second compound 1 µM, first compound 0.00949 µM): 104%
viability, T/C (second compound 1 µM, first compound 0.03 µM): 86.4%
viability, T/C (second compound 1 µM, first compound 0.0949 µM): 33.4%
viability, T/C (second compound 1 µM, first compound 0.3 µM): 13%
viability, T/C (second compound 1 µM, first compound 0.949 µM): 6.51%
viability, T/C (second compound 1 µM, first compound 3 µM): 4.74%
viability, T/C (second compound 3.16 µM, first compound 0.00949 µM): 98.9%
viability, T/C (second compound 3.16 µM, first compound 0.03 µM): 105%
viability, T/C (second compound 3.16 µM, first compound 0.0949 µM): 39%
viability, T/C (second compound 3.16 µM, first compound 0.3 µM): 10.7%
viability, T/C (second compound 3.16 µM, first compound 0.949 µM): 6.97%
viability, T/C (second compound 3.16 µM, first compound 3 µM): 9.62%
viability, T/C (second compound 10 µM, first compound 0.00949 µM): 90.8%
viability, T/C (second compound 10 µM, first compound 0.03 µM): 64.6%
viability, T/C (second compound 10 µM, first compound 0.0949 µM): 35%
viability, T/C (second compound 10 µM, first compound 0.3 µM): 14.2%
viability, T/C (second compound 10 µM, first compound 0.949 µM): 5.81%
viability, T/C (second compound 10 µM, first compound 3 µM): 4.68%

Source: PubChem BioAssay AID1918946 (Molecular Pharmacology Branch, DTP, NCI, 2023)
